In PubChem BioAssay (NCI):
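Cells were grown in 96-well plates and exposed to each compound for 48 hours at five concentrations; endpoints were interpolated linearly between bracketing concentrations, or set to the highest concentration if not reached. TGI marks complete inhibition of growth.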

Key:
Experiment in all cases: NCI-60 cell line screen, 48 h
A549 NSCLC = test system: A549 NSCLC
CCRF-CEM leukemia = test system: CCRF-CEM leukemia
NCI-H23 lung = test system: NCI-H23 lung
OVCAR-3 ovarian = test system: OVCAR-3 ovarian
SF-539 CNS = test system: SF-539 CNS
BT-549 breast = test system: BT-549 breast
DU-145 prostate = test system: DU-145 prostate
HCT-116 colon = test system: HCT-116 colon
NCI-H226 lung = test system: NCI-H226 lung
KM12 colon = test system: KM12 colon
HCC-2998 colon = test system: HCC-2998 colon
OVCAR-4 ovarian = test system: OVCAR-4 ovarian
M14 melanoma = test system: M14 melanoma
HL-60(TB) leukemia = test system: HL-60(TB) leukemia
786-0 renal = test system: 786-0 renal
TK-10 renal = test system: TK-10 renal
T-47D breast = test system: T-47D breast
MDA-N = test system: MDA-N
MDA-MB-231 breast = test system: MDA-MB-231 breast
U251 CNS = test system: U251 CNS
NCI-H522 lung = test system: NCI-H522 lung
MOLT-4 leukemia = test system: MOLT-4 leukemia
HS 578T breast = test system: HS 578T breast
COLO 205 colon = test system: COLO 205 colon
A498 renal = test system: A498 renal
HOP-62 NSCLC = test system: HOP-62 NSCLC
HCT-15 colon = test system: HCT-15 colon
OVCAR-8 ovarian = test system: OVCAR-8 ovarian
NCI/ADR-RES ovarian = test system: NCI/ADR-RES ovarian
SN12C renal = test system: SN12C renal
UACC-257 melanoma = test system: UACC-257 melanoma
SK-MEL-2 melanoma = test system: SK-MEL-2 melanoma
MALME-3M melanoma = test system: MALME-3M melanoma
MCF7 breast = test system: MCF7 breast
HOP-92 NSCLC = test system: HOP-92 NSCLC
SNB-75 CNS = test system: SNB-75 CNS
OVCAR-5 ovarian = test system: OVCAR-5 ovarian
SNB-19 CNS = test system: SNB-19 CNS
HT29 colon = test system: HT29 colon
SK-MEL-5 melanoma = test system: SK-MEL-5 melanoma
RXF 393 renal = test system: RXF 393 renal
NCI-H460 lung = test system: NCI-H460 lung
UACC-62 melanoma = test system: UACC-62 melanoma
ACHN renal = test system: ACHN renal
K-562 leukemia = test system: K-562 leukemia
LOX IMVI melanoma = test system: LOX IMVI melanoma
SW-620 colon = test system: SW-620 colon
MDA-MB-435 = test system: MDA-MB-435
CAKI-1 renal = test system: CAKI-1 renal
SF-268 CNS = test system: SF-268 CNS
SF-295 CNS = test system: SF-295 CNS
IGROV1 ovarian = test system: IGROV1 ovarian
PC-3 prostate = test system: PC-3 prostate
SK-MEL-28 melanoma = test system: SK-MEL-28 melanoma
RPMI-8226 leukemia = test system: RPMI-8226 leukemia
SK-OV-3 ovarian = test system: SK-OV-3 ovarian
EKVX NSCLC = test system: EKVX NSCLC
SR leukemia = test system: SR leukemia
UO-31 renal = test system: UO-31 renal

CC1=C(O)C(=O)C=C2C1=CC=C1[C@@]2(C)CC[C@@]2(C)C3C[C@@H](C)C(=O)[C@@H](O)[C@]3(C)CC[C@]12C (some centres not stated)
TGI (A549 NSCLC): 28.5 µM
TGI (CCRF-CEM leukemia): 1.87 µM
TGI (NCI-H23 lung): 3.6 µM
TGI (OVCAR-3 ovarian): 3.6 µM
TGI (SF-539 CNS): 4.33 µM
TGI (BT-549 breast): 3.4 µM
TGI (DU-145 prostate): 3.38 µM
TGI (HCT-116 colon): 3.21 µM
TGI (NCI-H226 lung): 11.1 µM
TGI (KM12 colon): 19.6 µM
TGI (HCC-2998 colon): 9.65 µM
TGI (OVCAR-4 ovarian): 11 µM
TGI (M14 melanoma): 3.26 µM
TGI (HL-60(TB) leukemia): 2.76 µM
TGI (786-0 renal): 2.36 µM
TGI (TK-10 renal): 3.82 µM
TGI (T-47D breast): 3.44 µM
TGI (MDA-N): 3.3 µM
TGI (MDA-MB-231 breast): 3.75 µM
TGI (U251 CNS): 2.88 µM
TGI (NCI-H522 lung): 2.34 µM
TGI (MOLT-4 leukemia): 3.21 µM
TGI (HS 578T breast): > 84.8 µM
TGI (COLO 205 colon): 3.05 µM
TGI (A498 renal): 12.4 µM
TGI (HOP-62 NSCLC): 11.6 µM
TGI (HCT-15 colon): 3.73 µM
TGI (OVCAR-8 ovarian): 5.47 µM
TGI (NCI/ADR-RES ovarian): 9.55 µM
TGI (SN12C renal): 4.89 µM
TGI (UACC-257 melanoma): 7.46 µM
TGI (SK-MEL-2 melanoma): 9.85 µM
TGI (MALME-3M melanoma): 3.97 µM
TGI (MCF7 breast): 11 µM
TGI (HOP-92 NSCLC): 3.87 µM
TGI (SNB-75 CNS): 17.3 µM
TGI (OVCAR-5 ovarian): 9.29 µM
TGI (SNB-19 CNS): 9.23 µM
TGI (HT29 colon): 3.79 µM
TGI (SK-MEL-5 melanoma): 12.7 µM
TGI (RXF 393 renal): 3.49 µM
TGI (NCI-H460 lung): 37.6 µM
TGI (UACC-62 melanoma): 3.28 µM
TGI (ACHN renal): 3.07 µM
TGI (K-562 leukemia): 5.17 µM
TGI (LOX IMVI melanoma): 3.02 µM
TGI (SW-620 colon): 2.32 µM
TGI (MDA-MB-435): 6.6 µM
TGI (CAKI-1 renal): 2.83 µM
TGI (SF-268 CNS): 11 µM
TGI (SF-295 CNS): 13.4 µM
TGI (IGROV1 ovarian): 3.28 µM
TGI (PC-3 prostate): 4.23 µM
TGI (SK-MEL-28 melanoma): 4.17 µM
TGI (RPMI-8226 leukemia): 5.08 µM
TGI (SK-OV-3 ovarian): 22.2 µM
TGI (EKVX NSCLC): 4.12 µM
TGI (SR leukemia): 1.3 µM
TGI (UO-31 renal): 3.53 µM

NS(=O)(=O)c1ccc(NC(=S)NC(=O)Nc2ccc(Cl)c(Cl)c2)cc1
TGI (A549 NSCLC): 31.7 µM
TGI (CCRF-CEM leukemia): 70.7 µM
TGI (NCI-H23 lung): 33.7 µM
TGI (OVCAR-3 ovarian): 42 µM
TGI (SF-539 CNS): 39.7 µM
TGI (BT-549 breast): 31.7 µM
TGI (DU-145 prostate): 33.7 µM
TGI (HCT-116 colon): 27.7 µM
TGI (NCI-H226 lung): 43.8 µM
TGI (KM12 colon): 28.3 µM
TGI (HCC-2998 colon): 30.9 µM
TGI (OVCAR-4 ovarian): 44.1 µM
TGI (M14 melanoma): 20.9 µM
TGI (HL-60(TB) leukemia): 33.5 µM
TGI (786-0 renal): 31.1 µM
TGI (TK-10 renal): 81.5 µM
TGI (T-47D breast): 33.3 µM
TGI (MDA-N): 29.6 µM
TGI (MDA-MB-231 breast): 33.5 µM
TGI (U251 CNS): 37.8 µM
TGI (NCI-H522 lung): 37.3 µM
TGI (MOLT-4 leukemia): 49.6 µM
TGI (HS 578T breast): 59.3 µM
TGI (COLO 205 colon): 32.3 µM
TGI (A498 renal): 7.51 µM
TGI (HOP-62 NSCLC): 36.8 µM
TGI (HCT-15 colon): 29.8 µM
TGI (OVCAR-8 ovarian): 41.2 µM
TGI (NCI/ADR-RES ovarian): 44.6 µM
TGI (SN12C renal): 31 µM
TGI (UACC-257 melanoma): 41.4 µM
TGI (SK-MEL-2 melanoma): 34.4 µM
TGI (MALME-3M melanoma): 33.5 µM
TGI (MCF7 breast): 30.2 µM
TGI (HOP-92 NSCLC): 48.6 µM
TGI (SNB-75 CNS): 28.8 µM
TGI (OVCAR-5 ovarian): 27.9 µM
TGI (SNB-19 CNS): 24.5 µM
TGI (HT29 colon): 31.3 µM
TGI (SK-MEL-5 melanoma): 31.1 µM
TGI (RXF 393 renal): 35.4 µM
TGI (NCI-H460 lung): > 69.8 µM
TGI (UACC-62 melanoma): 28.7 µM
TGI (ACHN renal): 32.2 µM
TGI (K-562 leukemia): > 82.6 µM
TGI (LOX IMVI melanoma): 19.1 µM
TGI (SW-620 colon): 35.9 µM
TGI (MDA-MB-435): 35.7 µM
TGI (CAKI-1 renal): 40.1 µM
TGI (SF-268 CNS): 32.3 µM
TGI (SF-295 CNS): 30.8 µM
TGI (IGROV1 ovarian): 39.2 µM
TGI (PC-3 prostate): 30 µM
TGI (SK-MEL-28 melanoma): 43.5 µM
TGI (RPMI-8226 leukemia): > 85.3 µM
TGI (SK-OV-3 ovarian): 38.9 µM
TGI (EKVX NSCLC): 51 µM
TGI (SR leukemia): > 100 µM
TGI (UO-31 renal): 9.66 µM

C=C1c2nc3ccccc3n2C=C(c2ccc(OC)cc2)N1c1ccc(OCCN2CCCCC2)cc1
TGI (A549 NSCLC): > 84.6 µM
TGI (CCRF-CEM leukemia): 10.1 µM
TGI (NCI-H23 lung): > 61.4 µM
TGI (OVCAR-3 ovarian): > 100 µM
TGI (SF-539 CNS): 81.2 µM
TGI (BT-549 breast): > 100 µM
TGI (DU-145 prostate): > 100 µM
TGI (HCT-116 colon): > 42.4 µM
TGI (NCI-H226 lung): > 96.7 µM
TGI (KM12 colon): > 100 µM
TGI (HCC-2998 colon): 33.6 µM
TGI (OVCAR-4 ovarian): > 100 µM
TGI (M14 melanoma): > 100 µM
TGI (HL-60(TB) leukemia): 20 µM
TGI (786-0 renal): > 52.5 µM
TGI (TK-10 renal): 41.8 µM
TGI (T-47D breast): > 100 µM
TGI (MDA-N): > 100 µM
TGI (MDA-MB-231 breast): > 64.7 µM
TGI (U251 CNS): > 91.3 µM
TGI (NCI-H522 lung): > 100 µM
TGI (MOLT-4 leukemia): 38.6 µM
TGI (HS 578T breast): > 100 µM
TGI (COLO 205 colon): 36.4 µM
TGI (A498 renal): > 84.5 µM
TGI (HOP-62 NSCLC): > 100 µM
TGI (HCT-15 colon): > 100 µM
TGI (OVCAR-8 ovarian): > 100 µM
TGI (NCI/ADR-RES ovarian): > 86.4 µM
TGI (SN12C renal): > 100 µM
TGI (UACC-257 melanoma): 10.8 µM
TGI (SK-MEL-2 melanoma): > 51.6 µM
TGI (MALME-3M melanoma): > 100 µM
TGI (MCF7 breast): > 100 µM
TGI (HOP-92 NSCLC): > 82 µM
TGI (SNB-75 CNS): > 100 µM
TGI (OVCAR-5 ovarian): > 100 µM
TGI (SNB-19 CNS): > 100 µM
TGI (HT29 colon): 43.3 µM
TGI (SK-MEL-5 melanoma): > 58.5 µM
TGI (RXF 393 renal): > 77 µM
TGI (NCI-H460 lung): 14.8 µM
TGI (UACC-62 melanoma): > 100 µM
TGI (ACHN renal): > 81.7 µM
TGI (K-562 leukemia): > 100 µM
TGI (LOX IMVI melanoma): > 44 µM
TGI (SW-620 colon): 52.3 µM
TGI (MDA-MB-435): > 74.9 µM
TGI (CAKI-1 renal): > 100 µM
TGI (SF-268 CNS): > 100 µM
TGI (SF-295 CNS): > 100 µM
TGI (IGROV1 ovarian): > 100 µM
TGI (PC-3 prostate): > 51.3 µM
TGI (SK-MEL-28 melanoma): > 100 µM
TGI (RPMI-8226 leukemia): 18.1 µM
TGI (SK-OV-3 ovarian): > 100 µM
TGI (EKVX NSCLC): > 100 µM
TGI (SR leukemia): 28.6 µM
TGI (UO-31 renal): > 48.2 µM
